Measured values from patent US11485776B2, “Antibodies against infectious diseases” (priority 2015, dated 2022).
In brackets after ≈: the same amount, converted by molar mass.

Legend:
Type in all cases: cell-based
[1] = tested on: C. albicans; assay: MIC test strips, clinical C. albicans
Description: (§1) C. albicans (SC 5314), C. kruesi (clinical isolate), C. tropicalis (BCRC 20520), C. parapsilosis (BCRC 20515) and C. glabrate (BCRC 20586) were kindly provided by Dr. Ching-Hua Su from Taipei Medical University, Taipei, Taiwan. […] Candida species were cultured in YPD medium and their identities were confirmed by CHROMagar Candida plate (CHROMagar, Paris, France).

[2] = tested on: C. tropicalis; assay: MIC test strips, clinical C. tropicalis
Description: as §1

[3] = tested on: C. glabrate; assay: MIC test strips, clinical C. glabrate
Description: as §1

[4] = tested on: C. parapsilosis; assay: MIC test strips, clinical C. parapsilosis
Description: as §1

[5] = specimen CT11-52, C. tropicalis
[6] = specimen CT12-54, C. tropicalis
[7] = specimen CP6-20, C. parapsilosis
[8] = specimen CP7-17, C. parapsilosis
[9] = specimen CP8-48, C. parapsilosis

- MIC ([1]; specimen CA6-17, C. albicans, read at 80% inhibition): 16 µg/mL (≈ 52.2 µM)
- MIC ([1]; specimen CA7-3, C. albicans): 2 µg/mL (≈ 6.53 µM)
- MIC ([1]; specimen CA7-26, C. albicans): 8 µg/mL (≈ 26.1 µM)
- MIC ([1]; specimen CA7-30, C. albicans): 1 µg/mL (≈ 3.27 µM)
- MIC ([1]; specimen CA10-50, C. albicans): 2 µg/mL (≈ 6.53 µM)
- MIC ([1]; specimen CA10-65, C. albicans): 1 µg/mL (≈ 3.27 µM)
- MIC ([2]; specimen CT6-29, C. tropicalis): 32 µg/ml
- MIC ([2]; specimen CT6-50, C. tropicalis): 8 µg/mL (≈ 26.1 µM)
- MIC [2, 5]: 32 µg/ml
- MIC [2, 6]: 8 µg/mL (≈ 26.1 µM)
- MIC ([3]; specimen CG5-8, C. glabrate): 64 µg/mL (≈ 209 µM)
- MIC ([3]; specimen CG5-66, C. glabrate): 16 µg/mL (≈ 52.2 µM)
- MIC ([3]; specimen CG7-37, C. glabrate): 32 µg/ml
- MIC ([3]; specimen CG8-11, C. glabrate): 64 µg/mL (≈ 209 µM)
- MIC [4, 7]: 16 µg/mL (≈ 52.2 µM)
- MIC [4, 8]: 8 µg/mL (≈ 26.1 µM)
- MIC [4, 9]: 4 µg/mL (≈ 13.1 µM)
SMILES: OC(Cn1cncn1)(Cn1cncn1)c1ccc(F)cc1F [fluconazole]
- Interpretation ([1]; specimen CA6-17, C. albicans): R
- Interpretation ([1]; specimen CA7-3, C. albicans): S
- Interpretation ([1]; specimen CA7-26, C. albicans): R
- Interpretation ([1]; specimen CA7-30, C. albicans): S
- Interpretation ([1]; specimen CA10-50, C. albicans): S
- Interpretation ([1]; specimen CA10-65, C. albicans): S
- Interpretation ([2]; specimen CT6-29, C. tropicalis): R
- Interpretation ([2]; specimen CT6-50, C. tropicalis): R
- Interpretation [2, 5]: R
- Interpretation [2, 6]: R
- Interpretation ([3]; specimen CG5-8, C. glabrate): R
- Interpretation ([3]; specimen CG5-66, C. glabrate): S
- Interpretation ([3]; specimen CG7-37, C. glabrate): S
- Interpretation ([3]; specimen CG8-11, C. glabrate): R
- Interpretation [4, 7]: R
- Interpretation [4, 8]: S
- Interpretation ([4]; specimen CP8-20, C. parapsilosis): R
- Interpretation [4, 9]: S
- Interpretation ([4]; specimen CP12-37, C. parapsilosis): R
